Test results as given in patent US9284296B2, “Bipyridine sulfonamide derivatives for the treatment of neurodegenerative diseases or conditions” (AUBERGINE PHARMACEUTICALS LLC, priority 2010, dated 2016).

Columns and labels:
Assay type in all cases: cell-based
[1] = system: SH-SY5Y human neuroblastoma cells; experiment: Protection against hydrogen peroxide-induced cell death; settings: for EC50: Homo sapiens, SH-SY5Y cells, 1 h preincubation, 100 μM hydrogen peroxide, 24 h, LDH readout of live cells
Protocol: The aim of this assay is to determine the neuroprotective effect of the compounds when human neuroblastoma cells are exposed to the oxidative stress induced by hydrogen peroxide, which leads to cell death. Therefore the protective effect of the compounds was measured by monitoring cell survival using a suitable commercial kit (Cytotoxicity Detection Kit, Roche Diagnostics GmbH, Mannheim, Germany) based on the quantification of the lactate dehydrogenase activity obtained from lysates of the remaining live cells with a colorimetric assay yielding absorbance at 492 nm as the final readout.
SH-SY5Y human neuroblastoma cells were seeded into 96-well culture plate at a density of 10,000 cells/well. Cells were preincubated for one hour with different concentrations of the compound at a 1% (v/v) DMSO concentration in an equivolumetric mixture of Minimum Essential Medium (MEM) and Nutrient Mixture HAM F12 supplemented with 10% foetal bovine serum, 100 U/ml penicillin, 100 μg/ml streptomycin, 1 mM each of non-essential aminoacids (commercial preparation from GIBCO, Paisley, UK) and 2 mM L-glutamine. Hydrogen peroxide was then added to reach 100 μM and the incubation was extended for 24 h. Then the medium was removed and live cells, which remained attached to the bottom of the plate, were lysed by incubating them during 5 min with 50 μl of 1% (v/v) Triton X-100 in Krebs-Hepes buffer (10 mM Hepes pH7.3 with 145 mM NaCl, 5.5 mM KCl, 1 mM MgCl2, 2 mM CaCl2 and 1 mM glucose). This lysate was used to measure LDH activity using the commercial kit according to the manufacturer's instructions. In the culture plate several wells were included as a control of cell death, in these wells the cells were preincubated with 1% (v/v) DMSO before hydrogen peroxide addition. Likewise, several wells were included as control for full cell survival, in these wells the addition of H2O2 was omitted. The absorbance of each tested sample was normalized to that of the control wells, so that for every compound concentration the percentage of protective effect was calculated with the following equation:
[formula] where “S” is the absorbance of the sample being considered, “E” is the average absorbance of wells used as control of full cell survival and “B” is the average absorbance of wells used as control of cell death. The values obtained at every compound concentration were finally used to calculate the EC50 (i.e., the concentration causing 50% of protective effect) of the tested compound. For that purpose the data were fitted to a classical 4-parameters isotherm equation using the nonlinear regression function of GraphPad™ Prism 5.0 (GraphPad Software Inc.), such equation is described below:
[formula] where “L” is the lower asymptote of the theoretical sigmoidal curve, “H” is the higher asymptote, “C” is the concentration of compound and “n” is the Hill coefficient.

[2] = system: secretion of soluble amyloid precursor protein-α (sAPPα); experiment: Stimulation of sAPPα secretion (CHO7w cells stably transfected with human APP, AlphaLISA); settings: for EC50 / Emax: Homo sapiens, CHO-7W, CHO7w cells, 24 h incubation, range stated for the listed compounds together; for Emax: read-out: maximum effect (sAPPα secretion)
Protocol: The effect of the compounds on the stimulation of the secretion of soluble amyloid precursor protein-α (sAPPα) was determined by measuring the levels of this protein in cell supernatants after incubating the cells with several concentrations of the tested compound. A CHO7w cell line, stably transfected with human APP, was used. Cells were dispensed in 96-well culture plates (5,000 cells/well) and grown in DMEM supplemented with 2% (v/v) foetal bovine serum, 100 U/ml penicillin, 100 μg/ml streptomycin, 2 mM L-glutamine and 200 μg/ml G418 in the presence of several concentrations of the tested compound which had been previously dissolved in DMSO (1% (v/v) DMSO final concentration). After 24 h of incubation 5 μl of the culture supernatants were withdrawn and their sAPPα. concentration was measured with a commercial kit (AlphaLISA® Amyloid Precursor Protein-α Secreted Research kit, PerkinElmer, Waltham, Mass., USA) following manufacturer's instructions. In the culture plate several wells were included as a control for background sAPPα secretion, in these wells the cells were incubated with 1% (v/v) DMSO. The results obtained for each tested sample were normalized by using the following equation:
[formula] where “S” is the sAPPα concentration of the sample being considered, “B” is the average sAPPα concentration of wells used for background secretion and “M” is the sAPPα concentration of wells yielding the highest value. These normalized values obtained at every compound concentration were finally used to calculate the EC50 of the tested compound fitting them to a 4-parameters isotherm equation as already described. The average EC50s ranges are reported in Table 4 together with the maximum observed effect (and the concentration at which this effect was reached), this latter value was calculated for each compound according to the following equation:
[formula] with “M” and “B” as defined above.

[3] = system: secretion of amyloid peptide β1-40 (Aβ1-40); experiment: Inhibition of β-amyloid secretion (CHO7w cells stably transfected with human APP, ELISA); settings: CHO-7W, 24 h incubation, range stated for the listed compounds together
Protocol: The inhibition caused by the compounds on the secretion of amyloid peptide β1-40 (Aβ1-40) was determined by measuring the levels of this peptide in cell supernatants after incubating the cells with several concentrations of the tested compound. A CHO7w cell line, stably transfected with human amyloid precursor protein (APP), was used. Cells were dispensed in 96-well culture plates (5,000 cells/well) and grown in DMEM supplemented with 2% (v/v) foetal bovine serum, 100 U/ml penicillin, 100 μg/ml streptomycin, 2 mM L-glutamine and 200 μg/ml G418 in the presence of several concentrations of the tested compound which had been previously dissolved in DMSO (1% (v/v) DMSO final concentration). After a 24 h incubation the amount of Aβ1-40 secreted to the medium was measured with an ELISA-based commercial kit (Human Amyloid β-40 ELISA High Sensitivity Kit, Millipore, Billerica, Mass., USA) using absorbance at 450 nm as the final readout. In the culture plate several wells were included as a control for lack of Aβ1-40 secretion, in these wells the cells were incubated in the presence of 16% (v/v) DMSO to inhibit cell growth therefore abolishing Aβ1-40 secretion. Likewise, several wells were also included as a control for full Aβ1-40 secretion, in these wells the cells were grown in the presence of 1% (v/v) DMSO. The absorbance of each tested sample was normalized to that of the control wells, so that for every compound concentration the percentage of inhibition was calculated with the following equation:
[formula] where “S” is the absorbance of the sample being considered, “E” is the average absorbance of wells lacking Aβ1-40 secretion and “B” is the average absorbance of wells with full Aβ1-40 secretion. The inhibition values obtained at every compound concentration were fitted to a 4-parameters isotherm equation, as described above, to calculate the […] (i.e., the concentration causing 50% of inhibition of Ab1-40 secretion).

[4] = comparison among tested compounds

Compound	EC50 [1] [µM]	EC50 [2] [µM]	Emax [2] [%]	IC50 [3] [µM]	rank of activity among compounds assayed (protection against hydrogen peroxide) ([1]; comparison within Table 2)	rank of concentration at which maximum effect was reached (sAPPα secretion) [2, 4]	rank of maximum effect among compounds tested (sAPPα secretion) [2, 4]
CCN(CC)CCOc1cc(CNS(=O)(=O)c2ccc(C)s2)nc(-c2ccccn2)c1 [Compound 32, 5-Methyl-thiophene-2-sulfonic acid [4-(2-diethylamino-ethoxy)-[2,2′]bipyridinyl-6-ylmethyl]-amide]	0.55	0.5 to 11	250 to 500	–	–	–	–
COc1cc(CNS(=O)(=O)c2ccc(F)cc2)nc(-c2ccccn2)c1 [Compound 11, 4-Fluoro-N-(4-methoxy-[2,2′]bipyridinyl-6-ylmethyl)-benzenesulfonamide]	1.3	0.5 to 11	250 to 500	–	–	–	–
COc1cc(CNS(=O)(=O)c2cc(Cl)sc2Cl)nc(-c2ccccn2)c1 [Compound 19, 2,5-Dichloro-thiophene-3-sulfonic acid (4-methoxy-[2,2′]bipyridinyl-6-ylmethyl)-amide]	1.3	0.5 to 11	250 to 500	0.3 to 42	–	–	–
COc1cc(CNS(=O)(=O)c2cccs2)nc(-c2ccccn2)c1 [Compound 8]	0.09	0.5 to 11	250 to 500	–	most active compound	maximum effect at the lowest concentration	–
COc1cc(CN(S(=O)(=O)c2ccc(Cl)s2)S(=O)(=O)c2ccc(Cl)s2)nc(-c2ccccn2)c1 [Compound 26]	4.6	–	–	0.3 to 42	–	–	–
COc1cc(CNS(=O)(=O)c2cc(Cl)ccc2Cl)nc(-c2ccccn2)c1 [Compound 100]	1.04	–	–	0.3 to 42	–	–	–
CS(=O)(=O)c1cc(CNS(=O)(=O)c2ccc(Cl)s2)nc(-c2ccccn2)c1 [Compound 33, 5-Chloro-thiophene-2-sulfonic acid (4-methanesulfonyl-[2,2′]bipyridinyl-6-ylmethyl)-amide]	1.02	0.5 to 11	250 to 500	0.3 to 42	–	–	–
COc1cc(CNS(=O)(=O)c2ccc(Br)cc2)nc(-c2ccccn2)c1 [Compound 16, 4-Bromo-N-(4-methoxy-[2,2′]bipyridinyl-6-ylmethyl)-benzenesulfonamide]	3.2	0.5 to 11	250 to 500	–	–	–	–
COc1cc(CNS(=O)(=O)c2ccc(F)c(C#N)c2)nc(-c2ccccn2)c1 [Compound 14, 3-Cyano-4-fluoro-N-(4-methoxy-[2,2′]bipyridinyl-6-ylmethyl)-benzenesulfonamide]	1.6	0.5 to 11	250 to 500	–	–	–	–
CCN(CC)CCOc1cc(CNS(=O)(=O)c2cccs2)nc(-c2ccccn2)c1 [Compound 28, Thiophene-2-sulfonic acid [4-(2-diethylamino-ethoxy)-[2,2′]bipyridinyl-6-ylmethyl]-amide]	1.16	0.5 to 11	250 to 500	–	–	–	–
COc1cc(CNS(=O)(=O)c2ccc(Br)s2)nc(-c2ccccn2)c1 [Compound 18, 5-Bromo-thiophene-2-sulfonic acid (4-methoxy-[2,2′]bipyridinyl-6-ylmethyl)-amide]	1.88	0.5 to 11	250 to 500	–	–	–	–
COc1cc(CNS(=O)(=O)CC(F)(F)F)nc(-c2ccccn2)c1 [Compound 82]	0.5	–	–	0.3 to 42	–	–	–
COc1cc(CNS(=O)(=O)c2ccc(C(F)(F)F)cc2)nc(-c2ccccn2)c1 [Compound 4, N-(4-Methoxy-[2,2′]bipyridinyl-6-ylmethyl)-4-trifluoromethyl-benzenesulfonamide]	2.6	–	–	0.3 to 42	–	–	–
COc1cc(CNS(=O)(=O)c2ccc(Cl)s2)nc(-c2ccccn2)c1 [Compound 2, 5-Chloro-thiophene-2-sulfonic acid (4-methoxy-[2,2′]bipyridinyl-6-ylmethyl)-amide]	0.8	0.5 to 11	250 to 500	0.3 to 42	–	–	maximum effect was obtained
COc1cc(CNS(=O)(=O)c2cc(F)cc(F)c2)nc(-c2ccccn2)c1 [Compound 10]	1.17	0.5 to 11	250 to 500	0.3 to 42	–	–	–
COc1cc(CNS(=O)(=O)c2sc(Cl)nc2Cl)nc(-c2ccccn2)c1 [Compound 101]	0.23	–	–	0.3 to 42	–	–	–
COc1cc(CNS(=O)(=O)c2ccc(C(C)=O)cc2)nc(-c2ccccn2)c1 [Compound 9]	6.1	0.5 to 11	250 to 500	–	–	–	–
COc1cc(CNS(=O)(=O)c2ccc(C#N)cc2)nc(-c2ccccn2)c1 [Compound 13, 4-Cyano-N-(4-methoxy-[2,2′]bipyridinyl-6-ylmethyl)-benzenesulfonamide]	1.5	0.5 to 11	250 to 500	–	–	–	–
COc1cc(CN(Cc2cc(OC)cc(-c3ccccn3)n2)S(=O)(=O)c2ccc(Cl)s2)nc(-c2ccccn2)c1 [Compound 27]	3.52	–	–	0.3 to 42	–	–	–
COc1cc(CNS(=O)(=O)c2ccccc2)nc(-c2ccccn2)c1 [Compound 6, N-(4-Methoxy-[2,2′]bipyridinyl-6-ylmethyl)-benzenesulfonamide]	1.58	0.5 to 11	250 to 500	–	–	–	–
COc1cc(CNS(=O)(=O)c2cccc(F)c2)nc(-c2ccccn2)c1 [Compound 12, 3-Fluoro-N-(4-methoxy-[2,2′]bipyridinyl-6-ylmethyl)-benzenesulfonamide]	1.06	0.5 to 11	250 to 500	–	–	–	–
CCN(CC)CCOc1cc(CNS(=O)(=O)c2ccc(Cl)s2)nc(-c2ccccn2)c1 [Compound 30, 5-Chloro-thiophene-2-sulfonic acid [4-(2-diethylamino-ethoxy)-[2,2′]bipyridinyl-6-ylmethyl]-amide]	0.29	0.5 to 11	250 to 500	0.3 to 42	–	–	–
